Measurements from US20030175438A1, “Treatments of solid substrates to enhance durability of treatments placed thereon” (priority 2002, published 2003).

Experiment: Bromphenol Blue (BPB) Extraction Method, spectrophotometric at 595 nm (modified CTM 0824), on treated fabric
Assay type: physicochemical
Details: for BOILED IN WATER % EXTRACTION / CHANGE / NO BOIL % EXTRACTION: Table XII; for % BPB EXTRACTION CHANGE / % EXTRACTION CHANGE / % BPB Extraction (change on boiling) / EXTRACTION CHANGE: boiled vs not boiled; for Boiling Durability - % BPB Extraction: Boil 30 min., Table XIV; for Strike Rate - % BPB Extraction: No Boil, Table XIII; for Boiled in H20 % Extraction / Change % Extraction / No Boil % Extraction: Table XI

## CCCCCCCCCCCCCCCCCC[N+](C)(C)CCC[Si](OC)(OC)OC.[Cl-] [AMT, N, N-dimethyl-N-Octadecyl-3-(trimethoxysilyl)propanaminium chloride]
130° C./5 minutes
  BOILED IN WATER % EXTRACTION: 27%
  CHANGE: −34%
  NO BOIL % EXTRACTION: 61%
130° C./30 minutes
  CHANGE: −41%
  NO BOIL % EXTRACTION: 68%
ACRYLIC MODACRYLIC, boiled 30 minutes, Table IV
  % Extraction @ 595 nm: 45%
ACRYLIC MODACRYLIC, Table IV
  % BPB EXTRACTION CHANGE: −46%
ACRYLIC MODACRYLIC, not boiled, Table IV
  % Extraction @ 595 nm: 91%
ACRYLIC, boiled 30 minutes, Table XVII
  Boiling Durability % BPB EXTRACTION @ 595 nm: 14%
ACRYLIC, Table XVII
  % EXTRACTION CHANGE: −42%
ACRYLIC, not boiled, Table XVII
  Boiling Durability % BPB EXTRACTION @ 595 nm: 56%
AIR DRIED
  BOILED IN WATER % EXTRACTION: 37%
  CHANGE: −38%
  NO BOIL % EXTRACTION: 75%
COTTON, boiled 30 minutes, Table III
  % BPB EXTRACTION @ 595 nm: 95%
COTTON, boiled 30 minutes, Table IV
  % Extraction @ 595 nm: 94%
COTTON, boiled 30 minutes, Table VI
  % Extraction @ 595 nm: 94%
COTTON, boiled 30 minutes, Table XV
  % BPB EXTRACTION @ 595 nm: 92%
COTTON, Table III
  % EXTRACTION CHANGE: −1%
COTTON, Table IX
  % EXTRACTION CHANGE: −1%
COTTON, Table VII
  % EXTRACTION CHANGE: +2%
COTTON, Table XV
  % EXTRACTION CHANGE: −1%
COTTON, boiled, Table IX
  % BPB EXTRACTION @ 595 nm: 92%
COTTON, boiled, Table VII
  % BPB EXTRACTION @ 595 nm: 97%
COTTON, not boiled, Table III
  % BPB EXTRACTION @ 595 nm: 96%
COTTON, not boiled, Table IV
  % Extraction @ 595 nm: 95%
COTTON, not boiled, Table IX
  % BPB EXTRACTION @ 595 nm: 93%
COTTON, not boiled, Table VI
  % Extraction @ 595 nm: 94%
COTTON, not boiled, Table VII
  % BPB EXTRACTION @ 595 nm: 95%
COTTON, not boiled, oven dried 130° C. 5 minutes, Table XV
  % BPB EXTRACTION @ 595 nm: 93%
NYLON, boiled 30 minutes, Table I
  % Extraction @ 595 nm: 45%
NYLON, boiled 30 minutes, Table III
  % BPB EXTRACTION @ 595 nm: 20%
NYLON, boiled 30 minutes, Table IV
  % Extraction @ 595 nm: 45%
NYLON, boiled 30 minutes, Table XV
  % BPB EXTRACTION @ 595 nm: 30%
NYLON, boiled 30 minutes, Table XVII
  Boiling Durability % BPB EXTRACTION @ 595 nm: 26%
NYLON, Table I
  % BPB Extraction (change on boiling): −37%
NYLON, Table III
  % EXTRACTION CHANGE: −57%
NYLON, Table IV
  % BPB EXTRACTION CHANGE: −25%
NYLON, Table IX
  % EXTRACTION CHANGE: −66%
NYLON, Table VI
  EXTRACTION CHANGE: −71%
NYLON, Table VII
  % EXTRACTION CHANGE: −69%
NYLON, Table XV
  % EXTRACTION CHANGE: −59%
NYLON, Table XVII
  % EXTRACTION CHANGE: −54%
NYLON, boiled, Table VII
  % BPB EXTRACTION @ 595 nm: 18%
NYLON, not boiled, Table I
  % Extraction @ 595 nm: 82%
NYLON, not boiled, Table III
  % BPB EXTRACTION @ 595 nm: 77%
NYLON, not boiled, Table IV
  % Extraction @ 595 nm: 70%
NYLON, not boiled, Table VI
  % Extraction @ 595 nm: 82%
NYLON, not boiled, Table VII
  % BPB EXTRACTION @ 595 nm: 87%
NYLON, not boiled, oven dried 130° C. 5 minutes, Table XV
  % BPB EXTRACTION @ 595 nm: 89%
Nylon
  Boiling Durability - % BPB Extraction: 14.42%
Nylon, treatment at pH = 11
  Boiling Durability - % BPB Extraction: 17.83%
PET Staple
  Boiling Durability - % BPB Extraction: 6.82%
PET Staple, treatment at pH = 11
  Boiling Durability - % BPB Extraction: 37.6%
PET Staple, 0.25 grams of fabric
  Strike Rate - % BPB Extraction: 17.36%
PET, treatment at pH = 11
  Boiling Durability - % BPB Extraction: 14.38%
PET, 0.25 grams of fabric
  Strike Rate - % BPB Extraction: 4.98%
PET, boiled 30 minutes, Table I
  % Extraction @ 595 nm: 18%
PET, boiled 30 minutes, Table III
  % BPB EXTRACTION @ 595 nm: 20%
PET, boiled 30 minutes, Table VI
  % Extraction @ 595 nm: 26%
PET, boiled 30 minutes, Table XVII
  Boiling Durability % BPB EXTRACTION @ 595 nm: 19%
PET, Table I
  % BPB Extraction (change on boiling): −71%
PET, Table III
  % EXTRACTION CHANGE: −74%
PET, Table IX
  % EXTRACTION CHANGE: −73%
PET, Table VI
  EXTRACTION CHANGE: −63%
PET, Table VII
  % EXTRACTION CHANGE: −72%
PET, Table XV
  % EXTRACTION CHANGE: −50%
PET, boiled, Table IX
  % BPB EXTRACTION @ 595 nm: 14%
PET, boiled, Table VII
  % BPB EXTRACTION @ 595 nm: 91%
PET, not boiled, Table I
  % Extraction @ 595 nm: 89%
PET, not boiled, Table IX
  % BPB EXTRACTION @ 595 nm: 87%
PET, not boiled, Table VI
  % Extraction @ 595 nm: 89%
PET, not boiled, Table VII
  % BPB EXTRACTION @ 595 nm: 93%
PET, not boiled, Table XVII
  Boiling Durability % BPB EXTRACTION @ 595 nm: 83%
PET, not boiled, oven dried 130° C. 5 minutes, Table XV
  % BPB EXTRACTION @ 595 nm: 86%
PPNW, boiled 30 minutes, Table XV
  % BPB EXTRACTION @ 595 nm: 45%
PPNW, boiled 30 minutes, Table XVII
  Boiling Durability % BPB EXTRACTION @ 595 nm: 37%
PPNW, Table XV
  % EXTRACTION CHANGE: −40%
PPNW, Table XVII
  % EXTRACTION CHANGE: −40%
PPNW, not boiled, Table XVII
  Boiling Durability % BPB EXTRACTION @ 595 nm: 77%
PPNW, not boiled, oven dried 130° C. 5 minutes, Table XV
  % BPB EXTRACTION @ 595 nm: 85%
RAYON, boiled 30 minutes, Table I
  % Extraction @ 595 nm: 35%
RAYON, boiled 30 minutes, Table III
  % BPB EXTRACTION @ 595 nm: 50%
RAYON, boiled 30 minutes, Table VI
  % Extraction @ 595 nm: 44%
RAYON, Table I
  % BPB Extraction (change on boiling): −55%
RAYON, Table III
  % EXTRACTION CHANGE: −44%
RAYON, Table IX
  % EXTRACTION CHANGE: −40%
RAYON, Table VI
  EXTRACTION CHANGE: −50%
RAYON, Table VII
  % EXTRACTION CHANGE: −50%
RAYON, boiled, Table IX
  % BPB EXTRACTION @ 595 nm: 52%
RAYON, boiled, Table VII
  % BPB EXTRACTION @ 595 nm: 42%
RAYON, not boiled, Table I
  % Extraction @ 595 nm: 90%
RAYON, not boiled, Table III
  % BPB EXTRACTION @ 595 nm: 94%
RAYON, not boiled, Table IX
  % BPB EXTRACTION @ 595 nm: 92%
RAYON, not boiled, Table VI
  % Extraction @ 595 nm: 94%
RAYON, not boiled, Table VII
  % BPB EXTRACTION @ 595 nm: 92%
Rayon
  Boiling Durability - % BPB Extraction: 9.88%
Rayon, treatment at pH = 11
  Boiling Durability - % BPB Extraction: 21.36%
  Strike Rate - % BPB Extraction: 19.5%
cure: 130° C. for 5 Min
  Boiled in H20 % Extraction: 21%
  Change % Extraction: −36%
  No Boil % Extraction: 57%
cure: Air Dried
  Boiled in H20 % Extraction: 21%
  Change % Extraction: −46%
  No Boil % Extraction: 67%
